According to patent publication US10023587B2, “Oxabicycloheptanes and oxabicycloheptenes, their preparation and use” (LIXTE BIOTECHNOLOGY, INC., priority 2007, dated 2018):
“Also recorded” adds a separate entry of the source. Read-outs that look alike come from different tables or passages of the source.

How the values were obtained:
GBM cell line U373 [1] = assay: cells; assay type: cell-based, human
Experimental: To observe the effects Compound 100 in combination with retinoic acids, Compound 100 was combined with all-trans retinoic acid. […] The total number of cells is counted in the triplicate cultures at each dose and in controls after 7 days and the average number of cells and the standard deviation is determined.
(§1) The amount of inhibition of GBM cell growth is expressed as the proportion of the number of cells in the experimental dishes compared to the number of cells in control dishes containing only the drug vehicle and culture medium. The average percent of control is plotted and bracketed by one standard deviation calculated from the triplicate measurements.
Synergism (potentiation) of the inhibitory activity of two drugs in combination is said to be present when the percent survival in the presence of two drugs is less than the product of the percent survivals of the two drugs used alone at the same doses in the combination.

[2] = tested on: kidney cancer cell line, UMRC; assay: Inhibition of growth of kidney cancer cell line UMRC; assay type: cell-based; details: single agent, 7 days (FIG. 3)
Description: (§2) To determine whether there is tumor type specificity of the inhibitory properties of analogues of Compound 100, retinoic acid and Trichostatin A, we measured their inhibitory effects as single agents against the GBM line U373, a breast cancer line, MCF-7 (obtained from ATCC) and a kidney cancer cell line, UMRC (UMRC obtained by Dr. Zhuang, NINDS, NIH from the Intramural Research Support Program, SAIC, National Cancer Institute, Frederick Cancer Research and Development Center).

[3] = tested on: breast cancer line, MCF-7; assay: Inhibition of growth of breast cancer cell line MCF-7; assay type: cell-based; details: single agent, 7 days (FIG. 5)
Description: as §2

GBM cell line U373 [4] = assay: Inhibition of growth of GBM cell line U373 by single agents (cell counts); assay type: cell-based, human; details: for IC50: U373, exposure for 7 days, estimated from graphic plots (FIG. 1), read-out: concentration that inhibited brain tumor cell proliferation by 50% (IC50); for Inhibition of growth of cell line U373 (in words): single agent
Description: From graphic plots of the glioblastoma multiforme GBM cell line U373 (available from the National Institute of Neurological Disorders and Stroke Molecular Pathogenesis Unit, Building 10, Room 5 D37, National Institutes of Health, 900 Rockville Pike, Bethesda, Md., 20892) as a function of exposure to different doses of drug for 7 days, the concentration of each compound that inhibited brain tumor cell proliferation by 50% (IC50) was estimated.
To identify novel therapeutic targets for the treatment of glioblastoma multiforme (GBM), cantharidin analogues were evaluated for their ability to inhibit growth of glioblastoma multiforme cells. Specifically, GBM cell line U373 was used in evaluations.
The total number of cells is counted in the triplicate cultures at each dose and in controls after 7 days and the average number of cells and the standard deviation is determined.
as §1
For all cell culture experiments, cells are allowed to grow in the presence or absence of different concentrations of drug or in the presence of the vehicle used to dissolve the drug, PBS for compound 100 and DMSO for compound 102. Cell counts are done in triplicate on day 3 and day 7 and inhibition of growth is expressed as a percentage of the number of cells present in the experimental well divided by the number of cells in a control well.

[5] = known cantharidin homologs, stated as known; cited from earlier work
[6] = Solubility (water, lipid); assay type: physicochemical; details: own compounds
Stability at acid pH = assay type: physicochemical

Structure (SMILES) | Sensitivity of UMRC compared with U373 (in words) [2] | Inhibition of growth of MCF-7 (in words) [3] | Inhibition of growth of cell line U373 (in words) (GBM cell line U373 [4]; 7 days) | melting point | other results
O=C(O)[C@@H]1[C@H](C(=O)O)[C@H]2CC[C@@H]1O2 [endothal] | less sensitive than the brain tumor line, U373 | as sensitive as U373; also recorded: an inhibition in growth | Increasing dosages demonstrate a greater inhibition of growth; also recorded: modest inhibition of growth | – | Percent of Control, Observed (GBM cell line U373 [1]; END 10 uM, U373, 7 days (Table 3)): 65%; IC50 (GBM cell line U373 [4]): 15 µM
CN(C)CCNC(=O)C1C(C(=O)O)[C@H]2CC[C@@H]1O2 (stereo partly drawn) [Compound 106] | – | – | less activity | 48 to 50 °C | –
O=C1OC(=O)[C@H]2[C@@H]1[C@H]1CC[C@H]2O1 [norcantharidin] | less sensitive than the brain tumor line, U373 | as sensitive as U373 | Increasing dosages demonstrate a greater inhibition of growth | – | Water solubility (in words) [5]: not; IC50 (GBM cell line U373 [4]): 12 µM
CC1=C(/C=C/C(C)=C/C=C/C(C)=C/C(=O)O)C(C)(C)CCC1 [ATRA, all-trans retinoic acid] | less sensitive than the brain tumor line, U373 | an inhibition in growth | – | – | activity at 25 µM (GBM cell line U373 [1]; Homo sapiens, U373 MG, 168 h, read-out: Percent of Control, Observed): 77%; Inhibition of growth of MCF-7 (in words) ([3]; listed as all-trans retinoic acid): as sensitive as U373
COC(=O)C1C(C(=O)N2CCN(C)CC2)[C@@H]2CC[C@H]1O2 (stereo partly drawn) | – | – | – | 105 to 107 °C | –
C[C@@]12C(=O)OC(=O)[C@]1(C)[C@H]1CC[C@@H]2O1 [cantharidin] | – | – | – | – | Water solubility (in words) [5]: not
O=C(O)C1C(C(=O)N2CCN(Cc3ccccc3)CC2)[C@@H]2CC[C@H]1O2 (stereo in doubt) [Compound 103, 3-(4-Benzylpiperazine-1-carbonyl)-7-oxa-bicyclo[2.2.1]heptane-2-carboxylic acid] | – | – | less activity | > 190 °C (dec.) | –
CCN1CCN(C(=O)C2C(C(=O)O)[C@H]3CC[C@@H]2O3)CC1 (stereo partly drawn) [Compound 105, 1-(3-Exocarboxy-7-oxabicyclo[2.2.1]heptane-2-exocarbonyl)-4-ethylpiperazine] | – | – | Increasing dosages demonstrate a greater inhibition of growth | – | Water solubility (in words) [6]: water soluble; Stability at acid pH (in words) (Stability at acid pH): stable at acid pH; Inhibitory value against U373, comparison of the two compounds (GBM cell line U373 [4]; 10 μM, seven days (FIG. 8)): identical inhibitory values; Inhibition of growth of cell line U373 (in words) (GBM cell line U373 [4]; 7 days, listed as compound 105): highly active; Inhibition of growth of cell line U373 (in words) (GBM cell line U373 [4]; after three days (FIG. 6)): Increasing dosages demonstrate a greater inhibition of growth
COc1ccc(CCN2CCC(NC(=O)C3C(C(=O)O)[C@H]4CC[C@@H]3O4)CC2)cc1 (stereo in doubt) [Compound 104, 3-(1-[2-(4-Methoxy-phenyl)-ethyl]piperidin-4-ylcarbamoyl)-7-oxa-bicyclo[2.2.1]-heptane-2-carboxylic acid] | – | – | less activity | 140 to 142 °C | –
O=C1SC(=O)[C@H]2[C@@H]1[C@@H]1CC[C@H]2O1 [endothal thioanhydride, reference compound] | less sensitive than the brain tumor line, U373 | as sensitive as U373 | Increasing dosages demonstrate a greater inhibition of growth; also recorded: greatest inhibition of growth | – | IC50 (GBM cell line U373 [4]): 2.5 µM
O=C(O)C1C(C(=O)N2CCNCC2)[C@@H]2CC[C@H]1O2 (stereo in doubt) [Compound 101, 3-(Piperazine-1-carbonyl)-7-oxa-bicyclo[2.2.1]heptane-2-carboxylic acid] | – | – | less activity | > 240 °C (dec.) | –
CC(/C=C/C(=O)NO)=C\[C@@H](C)C(=O)c1ccc(N(C)C)cc1 [TSA, Trichostatin A] | less sensitive than the brain tumor line, U373 | an inhibition in growth | – | – | Percent of Control, Observed (GBM cell line U373 [1]; TSA 0.033 μM (0.01 μg/ml), U373 (Table 4)): 71.6 +/− 0.4% of Control; Inhibition of growth of MCF-7 (in words) ([3]; listed as Trichostatin A): as sensitive as U373
CC1=C(/C=C/C(C)=C/C=C/C(C)=C\C(=O)O)C(C)(C)CCC1 [Cis-RA, 13-cis Retinoic Acid] | – | – | – | – | Percent of Control, Observed (GBM cell line U373 [1]; Cis-RA 50 μM, U373 (Table 4)): 93.3 +/− 2.2% of Control
